Patent US20230303542A1, “SOLID FORMS OF A PARP14 INHIBITOR” (Ribon Therapeutics, Inc., priority 2022, published 2023)
Values after ≈ are worked out from the molar mass of the structure shown.

Assays:
Format in all cases: physicochemical
[1] = Preliminary solubility of Compound 1 Form I, visual assessment; conditions: thermodynamic from solid, estimated via visual assessment
[2] = Dynamic solubility of Form II in mixed solvents, dissolution observed visually; conditions: thermodynamic from solid
Excerpt: The solubility data was used to control supersaturation and calculate theoretical yield of the crystallization process.

[3] = Dynamic solubility of Form II in single solvents, dissolution observed visually; conditions: thermodynamic from solid, 22° C.
Method: An appropriate amount of Form II was weighed into a sample vial and then the indicated solvent was added gradually until all the solid was dissolved at RT. The dissolution was observed visually.

[4] = Solid-state stability study (HPLC purity and XRPD); conditions: 60° C. (closed) and 40° C./75%RH for 14 days
Method: HPLC analysis was performed with an Agilent HPLC 1260 series instrument.
At day 0, 7 and 14, the sample was dissolved in diluent to prepare solution for HPLC purity analysis. Solid samples were analyzed by XRPD to check the crystal form.
(closed) and 40° C./75%RH (open) up to 14 days, samples were prepared in duplicate for each condition. […] (closed) and 40° C./75%RH for 14 days.

[5] = Kinetic solubility of Form II, clear temperature point by Crystal 16; conditions: organic solvent or mixture, thermodynamic from solid; at 30° C.; volume ratio of MeOH-water/MTBE 9/1/30
[6] = organic solvent or mixture, 2-Me-THF
[7] = organic solvent or mixture, Acetone
[8] = organic solvent or mixture, Ethanol (EtOH)
[9] = organic solvent or mixture, Ethyl acetate (EA)
[10] = organic solvent or mixture, Methanol (MeOH)
[11] = organic solvent or mixture, Methyl ethyl ketone (MEK)

In the case of `CC(=O)N1CCC(COc2cc(F)c3c(=O)[nH]c(CSC4CCOCC4)nc3c2)CC1` [Form I, 7-((1-acetylpiperidin-4-yl)methoxy)-5-fluoro-2-(((tetrahydro-2H-pyran-4-yl)thio)methyl)quinazolin-4(3H)-one], the solubility [1, 6] is reported as 10000 µg/mL (≈ 22.2 mM), the solubility ([1]; organic solvent or mixture, ACN) is reported as under 600 µg/mL and the solubility [1, 7] is reported as 1000 µg/mL (≈ 2.22 mM). It also gave a solubility ([1]; organic solvent or mixture, DCM) of 6300 µg/mL (≈ 14 mM), a solubility ([1]; organic solvent or mixture, DMSO) of 16700 µg/mL (≈ 37.1 mM) and a solubility [1, 8] of 3300 µg/mL (≈ 7.34 mM). For the same compound, the solubility [1, 9] was 2500 µg/mL (≈ 5.56 mM), the solubility ([1]; organic solvent or mixture, Heptane) was under 600 µg/mL and the solubility ([1]; organic solvent or mixture, Isopropyl acetate (IPAC)) was 1300 µg/mL (≈ 2.89 mM). It also gave a solubility ([1]; organic solvent or mixture, Isopropyl alcohol (IPA)) of under 600 µg/mL, a solubility [1, 10] of 10000 µg/mL (≈ 22.2 mM) and a solubility [1, 11] of 10000 µg/mL (≈ 22.2 mM). For the same compound, the solubility ([1]; organic solvent or mixture, Methyl tert-butyl ether (MTBE)) was under 600 µg/mL, the solubility ([1]; organic solvent or mixture, THF) was 4200 µg/mL (≈ 9.34 mM) and the solubility ([1]; organic solvent or mixture, Toluene) was under 600 µg/mL. For the same compound, the solubility ([1]; Water) was under 600 µg/mL.

With `CC(=O)N1CCC(COc2cc(F)c3c(=O)[nH]c(CSC4CCOCC4)nc3c2)CC1` [Form II, 7-((1-acetylpiperidin-4-yl)methoxy)-5-fluoro-2-(((tetrahydro-2H-pyran-4-yl)thio)methyl)quinazolin-4(3H)-one] the solubility ([2]; MeOH/Anisole (1/2), organic solvent or mixture, MeOH/Anisole (½), 25° C.) was about 150000 µg/mL (≈ 334 mM), the solubility ([2]; MeOH/Anisole (1/2), organic solvent or mixture, MeOH/Anisole (½), 40° C.) was over 200000 µg/mL and the solubility ([2]; organic solvent or mixture, Anisole, 25° C.) was under 1000 µg/mL. The solubility ([2]; organic solvent or mixture, MeOH/Anisole (1/1), 25° C.) was 163000 to 176000 µg/mL (≈ 363 to 392 mM), the solubility ([2]; organic solvent or mixture, MeOH/Anisole (1/1), 40° C.) was about 250000 µg/mL (≈ 556 mM) and the solubility ([2]; organic solvent or mixture, MeOH/Anisole (2/1), 25° C.) was 96000 to 106000 µg/mL (≈ 214 to 236 mM). The solubility at 30 min ([2]; organic solvent or mixture, MeOH/Anisole, volume ratio 1/1, RT, read-out: Solubility) was 150000 to 160000 µg/mL, the solubility ([2]; organic solvent or mixture, MeOH/Anisole/Hept (1/1/6), 25° C.) was under 5000 µg/mL and the solubility ([2]; organic solvent or mixture, MeOH/Anisole/Hept (1/2/3), 25° C.) was over 10000 µg/mL. It also gave a solubility ([2]; organic solvent or mixture, MeOH/Anisole/Hept (1/2/6), 25° C.) of about 5000 µg/mL (≈ 11.1 mM), a solubility ([2]; organic solvent or mixture, MeOH/Anisole/MTBE (1/2/6), 25° C.) of about 3000 µg/mL (≈ 6.67 mM) and a solubility at 30 min ([2]; organic solvent or mixture, MeOH/MEK, volume ratio 1/1, RT, read-out: Solubility) of 20000 to 30000 µg/mL. It also gave a solubility ([2]; organic solvent or mixture, MeOH/water (7/3), 60° C.) of about 125000 µg/mL (≈ 278 mM), a solubility at 30 min ([2]; organic solvent or mixture, MeOH/water (7/3), RT, read-out: Dynamic solubility) of 10000 to 13000 µg/mL (≈ 22.2 to 28.9 mM) and a solubility ([2]; organic solvent or mixture, MeOH/water (8/2), 50° C.) of 50000 to 100000 µg/mL (≈ 111 to 222 mM). The solubility ([2]; organic solvent or mixture, MeOH/water (8/2), 60° C.) was over 125000 µg/mL, the solubility at 30 min ([2]; organic solvent or mixture, MeOH/water (8/2), RT, read-out: Dynamic solubility) was 13000 to 17000 µg/mL (≈ 28.9 to 37.8 mM) and the solubility ([2]; organic solvent or mixture, MeOH/water (9/1), 0° C.) was 6000 to 10000 µg/mL (≈ 13.3 to 22.2 mM). The solubility ([2]; organic solvent or mixture, MeOH/water (9/1), 60° C.) was over 125000 µg/mL, the solubility at 30 min ([2]; organic solvent or mixture, MeOH/water (9/1), RT (Table of MeOH/Water), read-out: Dynamic solubility) was 10000 to 13000 µg/mL (≈ 22.2 to 28.9 mM) and the solubility at 30 min ([2]; organic solvent or mixture, MeOH/water, volume ratio 9/1, RT (Table of mixed solvents at RT), read-out: Solubility) was 35000 to 43000 µg/mL. It also gave a solubility ([2]; organic solvent or mixture, MeOH/water/MTBE (9/1/10), 0° C.) of over 4500 µg/mL, a solubility ([2]; organic solvent or mixture, MeOH/water/MTBE (9/1/20), 0° C.) of about 3000 µg/mL (≈ 6.67 mM) and a solubility ([2]; organic solvent or mixture, MeOH, 25° C.) of 8300 µg/mL (≈ 18.5 mM). For the same compound, the solubility ([2]; organic solvent or mixture, MeOH, 50° C.) was 29000 to 33000 µg/mL (≈ 64.5 to 73.4 mM), the solubility ([2]; organic solvent or mixture, MeOH, 60° C.) was 71000 to 83000 µg/mL (≈ 158 to 185 mM) and the solubility at 30 min ([2]; organic solvent or mixture, MeOH, RT, read-out: Dynamic solubility) was 8300 µg/mL (≈ 18.5 mM). The solubility at 30 min ([2]; volume ratio 1/2, organic solvent or mixture, Ethyl formate/Acetone, volume ratio ½, RT, read-out: Solubility) was under 2000 µg/mL, the solubility at 30 min ([2]; volume ratio 1/2, organic solvent or mixture, Ethyl formate/EA, volume ratio ½, RT, read-out: Solubility) was under 1000 µg/mL and the solubility at 30 min ([2]; volume ratio 1/2, organic solvent or mixture, Ethyl formate/IPA, volume ratio ½, RT, read-out: Solubility) was under 2000 µg/mL. It also gave a solubility at 30 min ([2]; volume ratio 1/2, organic solvent or mixture, Ethyl formate/IPAC, volume ratio ½, RT, read-out: Solubility) of under 1000 µg/mL, a solubility at 30 min ([2]; volume ratio 1/2, organic solvent or mixture, Ethyl formate/MEK, volume ratio ½, RT, read-out: Solubility) of under 2000 µg/mL and a solubility at 30 min ([2]; volume ratio 1/2, organic solvent or mixture, Ethyl formate/MTBE, volume ratio ½, RT, read-out: Solubility) of under 2000 µg/mL. For the same compound, the solubility at 30 min ([2]; volume ratio 1/2, organic solvent or mixture, Ethyl formate/diethyl ether, volume ratio ½, RT, read-out: Solubility) was 7000 to 8000 µg/mL, the solubility at 30 min ([2]; volume ratio 1/2, organic solvent or mixture, Ethyl formate/n-BuOH, volume ratio ½, RT, read-out: Solubility) was 3000 to 4000 µg/mL and the solubility at 30 min ([2]; volume ratio 1/2, organic solvent or mixture, MEK/EA, volume ratio ½, RT, read-out: Solubility) was under 1000 µg/mL. It also gave a solubility at 30 min ([2]; volume ratio 1/2, organic solvent or mixture, MEK/Ethyl formate, volume ratio ½, RT, read-out: Solubility) of under 1000 µg/mL, a solubility at 30 min ([2]; volume ratio 1/2, organic solvent or mixture, MEK/IPA, volume ratio ½, RT, read-out: Solubility) of under 1000 µg/mL and a solubility at 30 min ([2]; volume ratio 1/2, organic solvent or mixture, MEK/IPAC, volume ratio ½, RT, read-out: Solubility) of under 1000 µg/mL. The solubility at 30 min ([2]; volume ratio 1/2, organic solvent or mixture, MEK/diethyl ether, volume ratio ½, RT, read-out: Solubility) was under 1000 µg/mL, the solubility at 30 min ([2]; volume ratio 1/2, organic solvent or mixture, MEK/n-BuOH, volume ratio ½, RT, read-out: Solubility) was under 1000 µg/mL and the solubility at 30 min ([2]; volume ratio 1/2, organic solvent or mixture, MeOH/Acetone, volume ratio ½, RT, read-out: Solubility) was under 14000 µg/mL. For the same compound, the solubility at 30 min ([2]; volume ratio 1/2, organic solvent or mixture, MeOH/Diethyl ether, volume ratio ½, RT, read-out: Solubility) was under 2000 µg/mL, the solubility at 30 min ([2]; volume ratio 1/2, organic solvent or mixture, MeOH/EA, volume ratio ½, RT, read-out: Solubility) was under 10000 µg/mL and the solubility at 30 min ([2]; volume ratio 1/2, organic solvent or mixture, MeOH/Ethyl formate, volume ratio ½, RT, read-out: Solubility) was under 25000 µg/mL. For the same compound, the solubility at 30 min ([2]; volume ratio 1/2, organic solvent or mixture, MeOH/MEK, volume ratio ½, RT, read-out: Solubility) was 24000 to 30000 µg/mL, the solubility at 30 min ([2]; volume ratio 1/2, organic solvent or mixture, MeOH/n-BuOH, volume ratio ½, RT, read-out: Solubility) was under 3000 µg/mL and the solubility at 30 min ([2]; volume ratio 1/9, organic solvent or mixture, MeOH/Ethyl formate, volume ratio ⅑, RT, read-out: Solubility) was under 1000 µg/mL. For the same compound, the solubility at 30 min ([2]; volume ratio 1/9, organic solvent or mixture, MeOH/MEK, volume ratio ⅑, RT, read-out: Solubility) was 7000 to 8000 µg/mL, the solubility [3, 6] was 700 µg/mL (≈ 1.56 mM) and the solubility ([3]; organic solvent or mixture, 2-Propanol (IPA)) was under 600 µg/mL. It also gave a solubility ([3]; organic solvent or mixture, Acetic acid) of over 167000 µg/mL, a solubility [3, 7] of 800 µg/mL (≈ 1.78 mM) and a solubility ([3]; organic solvent or mixture, Acetonitrile (ACN)) of 600 µg/mL (≈ 1.33 mM). For the same compound, the solubility ([3]; organic solvent or mixture, Dichloromethane (DCM)) was 16700 µg/mL (≈ 37.1 mM), the solubility ([3]; organic solvent or mixture, Dimethyl sulfoxide (DMSO)) was 12500 µg/mL (≈ 27.8 mM) and the solubility [3, 8] was 1000 µg/mL (≈ 2.22 mM). For the same compound, the solubility [3, 9] was under 600 µg/mL, the solubility ([3]; organic solvent or mixture, Isopropyl acetate (IPAc)) was under 600 µg/mL and the solubility [3, 10] was 8300 µg/mL (≈ 18.5 mM). It also gave a solubility [3, 11] of 1700 µg/mL (≈ 3.78 mM), a solubility ([3]; organic solvent or mixture, Tert-Butyl methyl ether (MTBE)) of under 600 µg/mL and a solubility ([3]; organic solvent or mixture, Tetrahydrofuran (THF)) of 4200 µg/mL (≈ 9.34 mM). For the same compound, the solubility ([3]; organic solvent or mixture, Toluene (Tol)) was under 600 µg/mL, the solubility ([3]; organic solvent or mixture, n-Heptane (Hept)) was under 600 µg/mL and the solubility ([3]; Water) was under 600 µg/mL. For the same compound, the “Physical and chemical stability” value [4] was “both physically and chemically stable” and the solubility at 30 min [5] was 6500 µg/mL.
